Consider three molecules from US20180153830A1, “SELECTIVE INHIBITORS OF UNDIFFERENTIATED CELLS” (Yissum Research Development Company of the Hebrew …, priority 2012, published 2018).

In test [1] the test system is phosphorylated eIF2α in differentiated cells. The experiment in a line: Phospho-eIF2α immunoblot, differentiated cells. The note with it: 20 μM PluriSIn #1 or 100 nm A939572. The format is cell-based, human. The method, then: For immunoblotting, 10% polyacrylamide gel was used for protein separation and detection. The gel was transferred to a nitrocellulose membrane and antibody hybridization and chemiluminescence were performed according to standard procedures. The primary antibodies in this analysis were rabbit anti-phosphorylated-eIF2a (1:250, Cell Signaling Technology), rabbit anti caspase-3 (1:1,000, Cell Signaling Technology), mouse anti β-catenin (1:10,000, BD Biosciences) and mouse anti-α-tubulin (1:50,000, Sigma-Aldrich). Horseradish peroxidase-conjugated anti-rabbit and anti-mouse secondary antibodies were obtained from Jackson Immunoresearch Laboratories.
To further study the significance of UPR, XBP1 mRNA splicing and eIF2α phosphorylation, hallmarks of UPR, were further examined. Human ES cells and ES-derived differentiated cells were treated with PluriSIn #1 for 12 hours, and expression of the spliced isoform sXBP1 was determined by quantitative PCR and by immunoblotting, as described in the Materials and Methods section. Gene expression change conferred by dithiothreitol ([…]) was used as a positive control.

The test system of test [2] is protein synthesis in H9 embryonic stem cells. Nature of the test: 35S-Met metabolic labeling of protein synthesis, ES cells. The note with it: 12 hours; 20 μM PluriSIn #1 or 100 nm A939572. The format is cell-based, human. The method, then: H9 embryonic stem cells were seeded in Matrigel™ pre-coated 6-well tissue culture plates at a density of 2×10^5 cells/well, and cultured using mTeSR1 defined medium. BJ fibroblasts were seeded in 6-well tissue culture plate at the same density, and cultured with DMEM supplemented with 10% FBS, penicillin (50 U/ml) and streptomycin (50 μg/ml). Cells were treated for 12 hours with either 20 μM PluriSIn #1 (isonicotinic acid N′-phenylhydrazide) or with 0.2% DMSO. Cells were then washed with PBS, and replenished with methionine-deficient medium for 1 hour. Metabolic labeling of the cells was then performed for 1 hour with 10 μCi of […] methionine in 1 ml/well, in the presence of 20 μM PluriSIn #1 or 0.2% DMSO. Cells were washed with PBS containing 10 mM methionine, and were then lysed in 0.4 ml of 30% ice-cold trichloroacetic acid (TCA) containing 10 mM methionine for 15 minutes. […] Total protein concentration was determined using a Bradford Protein Assay (Sigma-Aldrich), and the radioactivity measurements were normalized accordingly. […]
The similarity between PSIs and PluriSIn #1 and #6 is consistent with the fact that UPR can lead to translational attenuation. In order to confirm this link, the effect of PluriSIn #1 treatment on protein synthesis was determined. […]

The test system of test [3] is undifferentiated CSES2-SO2/3 embryonic stem cells. Nature of the test: Fluorescence microscopy imaging of undifferentiated CSES2-SO2/3 cells. The format is cell-based, human. The note with it: for effect on undifferentiated cells: 24 hours of exposure. As to the method:
(§1) High content imaging of CSES2-SO2/3 fluorescent cells (mCherry+ or EGFP+) was performed in black clear-bottom 384-well assay plates (Falcon BD), using the Opera high-content screen imaging platform (PerkinElmer). Otherwise, light and fluorescence imaging of all cells was performed in 24-well, 6-well or 10 cm CELLSTAR® plates (Greiner Bio-One), using an Olympus CellR imaging station. Light imaging of developing mouse embryos was performed in 35 mm culture dishes (Falcon BD), using an Olympus IX70 microscope.
(§2) CSES2-SO2/3 is a genetically-labeled cell line that expresses mCherry under the promoter of the pluripotency hallmark gene OCT-4, and GFP under the promoter of the early endodermal marker SOX17. Therefore, these cells are red while undifferentiated, and become green upon their differentiation into the endodermal lineage [Kopper & Benvenisty, Stem Cell Research 8:335-345 (2011)]. Green early endodermal progenitor cells were generated from the red undifferentiated cells, using an 8-day differentiation protocol as described by Duan et al. [Stem Cells 28:674-686 (2010)].
(§3) In order to further verify the selectivity of the PluriSIns, and rule out any potential assay-related interference, undifferentiated and differentiated CSES2-SO2/3 cells were subjected to microscopy imaging after 24 hours of exposure to PluriSIns.

In test [4] the test system is CSES2-SO2/3-derived differentiated cells. The experiment in a line: Fluorescence microscopy imaging of differentiated CSES2-SO2/3 cells. In kind it is cell-based, human. The note with it: 24 hours of exposure. The method, then:
as §1, §2, §3

The next test concerns human ES cells. The experiment in a line: Global gene expression analysis (microarray). The note with it: 12 hours. In kind it is cell-based. The method, then: Human embryonic stem cells, and early endodermal progenitors derived from human embryonic stem cells, were treated for 12 hours with the compounds PluriSIn #1 (isonicotinic acid N′-phenylhydrazide) or PluriSIn #6 (2-hydroxy-2-(thiophen-2-yl)-2-phenylacetic acid 4-methyl-N′-phenylhydrazide), or with 0.2% DMSO control. Total RNA was extracted using a PerfectPure™ RNA Cultured Cell Kit (5 Prime) according to the manufacturer's protocol, and analyzed using a Human Genome U133A 2.0 microarray platform (Affymetrix); washing and scanning were performed according to the manufacturer's protocol. Original microarray data are accessible at the NCBI Gene Expression Omnibus (GEO) database under the accession number GSE37040.
Arrays were normalized using the MASS algorithm in the Affymetrix Expression Console. Probe sets absent in both control and treatment conditions were filtered out by the MASS Absent/Present call. Probe sets with expression values lower than 50 were raised to this level. Using a 2-fold threshold, a list of differentially expressed genes was comprised for each pair of conditions: embryonic stem cells treated with PluriSin #1 vs. control, ESCs treated with PluriSIn #6 vs. control, and endodermal progenitor cells treated with PluriSIn #1 vs. control. […]

For the molecule `CNC(=O)c1cccc(NC(=O)N2CCC(Oc3ccccc3Cl)CC2)c1` [A939572, 4-(2-chlorophenoxy)-N-(3-(methylcarbamoyl)-phenyl)piperidine-1-carboxamide, reference compound], the “levels of phosphorylated eIF2α, differentiated cells” value in test [1] was “did not increase levels”. In addition, in test [2], the “decrease in protein synthesis, ES cells” value is reported as “approximately 50%”.

For `O=C(NNc1ccccc1)c1ccncc1` [PluriSIn #1, isonicotinic acid N′-phenylhydrazide], the “effect on undifferentiated cells” value in test [3] is “eliminated undifferentiated cells”. For the same molecule, in test [3] (mixture of CSES2-SO2/3 ES and derived differentiated cells), the “effect on undifferentiated cells in a mixture of differentiated and undifferentiated cells” value is recorded as “also eliminated undifferentiated cells”. Moreover, the “effect on differentiated cells” value in test [4] is recorded as “without exhibiting any detectable effect”. Besides, the “levels of phosphorylated eIF2α, differentiated cells” value in test [1] was “did not increase levels”. Besides, in test [2], the “decrease in protein synthesis, ES cells” value is recorded as “approximately 30%”. Moreover, in the test on human ES cells, the “gene expression changes associated with ER stress and UPR” value is given as “considerable gene expression changes”.

As to `Cc1ccc(NNC(=O)C(O)(c2ccccc2)c2cccs2)cc1` (centres unmarked) [PluriSIn #6, 2-hydroxy-2-(thiophen-2-yl)-2-phenylacetic acid 4-methyl-N′-phenylhydrazide], in test [3], the “effect on undifferentiated cells” value is recorded as “eliminated the red undifferentiated cells”. In test [4], the “effect on differentiated cells” value is on record as “without exhibiting any detectable effect”. Also, the “gene expression changes associated with ER stress and UPR” value in the test on human ES cells is recorded as “considerable gene expression changes”.
